Here are results for 7 molecules from publication PMC7797697 (Theranostics, 2021).

The pIC50 is −log10 of the IC50, conventionally taken in molar units. Low readings indicate a high IC50, high ones a low IC50.

pIC50: −log10 of the molar value. Several values for one entry are separate records, joined by “and”; a condition that tells them apart may be missing. Equal entries are not always repeated. Bounds are passed on as bounds.

For assay [1], the system named is MDA-MB-231 cells. Put plainly: Intracellular calcium measurement (Fluo-4-AM). Particulars: thrombin stimulation, different concentrations of the pan-HDAC inhibitors. The format is cell-based, human. As for the experimental part: After treatment, the cells were digested and seeded in 96-well black plates (Corning Costar, Cambridge, MA, USA) and cultured for 20 h. For measurement of [Ca^2+]i, the cells were labeled with Fluo-4-AM in serum-free medium for half an hour at room temperature. After washing with Dulbecco's Phosphate Buffered Saline (D-PBS), cells were overlaid in Hank's balanced salt solution (5.4 mM KCl, 1 mM MgCl2, 20 mM hydroxyethyl piperazineethanesulfonic acid (HEPES), 120 mM NaCl, 10 mM glucose, 0.2 mM Ethylenebis(oxyethylenenitrilo)tetraacetic acid (EGTA)). Continuous fluorescence intensity was detected after thrombin was added as a calcium agonist by an automated sampler. Response over baseline was assessed as a relative measure of [Ca^2+]i.
As previously stated, studies have shown that the Ca^2+ signals can modulate cancer progression by regulating migration, proliferation, cell stress, and apoptosis.

Assay [2] concerns MDA-MB-231 cells. Kind of assay: High-content epigenetic inhibitor screen, quantification of living cells. The assay is classed as cell-based, human. Particulars: 3 μM, 72 h. The source says: (§1) HeLa, MCF-7 and MDA-MB-231 cell lines were purchased from the American Type Culture Collection. MCF-10A, T-47D, PANC-1, A549, HCT-15, Caco-2, SMMC-7721, SH-SY5Y, HUVEC and PC-3 cell lines were obtained from the Chinese Academy of Medical Sciences. MEF was isolated from pregnant mice at 14‒16 days of pregnancy. Primary breast cancer cells were isolated from breast cancer patients. All media including Dulbecco Modified Eagle Medium (DMEM), RPMI 1640 Medium and DMEM/Nutrient Mixture F-12 were supplemented with 10% fetal bovine serum (FBS), 100 units/mL penicillin, and […] streptomycin (Gibco, Waltham, MA, USA). Cells were cultured in a humidified incubator equilibrated with 5% CO2 at 37 °C. Cells were treated for 24-72 h in adherent conditions with compounds from an epigenetic small molecule inhibitor library (L1200, Topscience, Shanghai, China).
(§2) Statistical analyses of all data were performed using GraphPad Prism (version 8.0, Graph Pad Software Inc., San Diego, CA, USA). All the data were analyzed by Student's t-test or one-way ANOVA. The Z-Score was chosen to evaluate the results and experimental deviation. Quantitative data are presented as the mean ± SD. The asterisk (*) denotes statistically significant difference (P < 0.05). IC50 was calculated using a four-parameter fit with variable slope in GraphPad Prism.
To identify potential anti-tumor inhibitors, we screened an epigenetic small molecule inhibitor library for anti-tumor activity in breast cancer cells. […] The selection strategy mainly comprised three stages, in which different concentrations (high to low) of inhibitors screened with a high-content analysis instrument were identified using cancer cell lines in a 96-well plate format (Figure 1A). For the first step, we treated cells with a high concentration of compounds to exclude compounds ineffective in killing cancer cells. MDA-MB-231 cells, a human breast cancer cell line, were treated with 167 epigenetic compounds (30 μM each) for 48 h, and then analyzed by high-content analysis, where changes in cell morphology relative to the control (dimethyl sulfoxide, DMSO) would indicate modulation of cancer cells by compound treatment. […] At the second step, we treated the cells with the 60 compounds at a median concentration (3 μM) for 72 h to screen for inhibitors that can kill cancer cells with high efficiency.

The test system of another assay is MEF. Put plainly: CCK8 assay IC50. The format is cell-based, mouse. Particulars: normal cells, 72 h.
Excerpt: as §1
(§3) Cell viability was then detected using a CCK8 assay (MedChemExpress, USA) according to the manufacturer's instructions.
(§4) Statistical analyses of all data were performed using GraphPad Prism (version 8.0, Graph Pad Software Inc., San Diego, CA, USA). All the data were analyzed by Student's t-test or one-way ANOVA. The Z-Score was chosen to evaluate the results and experimental deviation. Quantitative data are presented as the mean ± SD. […] IC50 was calculated using a four-parameter fit with variable slope in GraphPad Prism.
(In general: Tetrazolium assays rely on reduction of a dye to a coloured formazan, in cell work by metabolically active cells.)

The test system of the next assay is PC-3. Kind of assay: CCK8 assay IC50. The format is cell-based. The settings on record: PC-3, prostatic cancer, 72 h. The method, then:
as §3, §2

Another assay concerns MCF-7. Kind of assay: CCK8 assay IC50. The assay is classed as cell-based. The settings on record: MCF-7, breast cancer, 72 h, CCK8. The method, then: as §3, §2
A further assay relates to T-47D. Kind of assay: CCK8 assay IC50. The assay is classed as cell-based. The settings on record: breast cancer, 72 h. The method, then:
as §3, §2

For the next assay, the system named is SMMC-7721. Put plainly: CCK8 assay IC50. Particulars: SMMC-7721, liver cancer, 72 h. The format is cell-based. The method, then: as §3, §2
For another assay, the system named is PANC-1. Kind of assay: CCK8 assay IC50. The assay is classed as cell-based. The settings on record: PANC-1, pancreatic cancer, 72 h. The method, then: as §3, §2
The subject of another assay is Caco-2. Put plainly: CCK8 assay IC50. The assay is classed as cell-based. The settings on record: Caco-2, colon cancer, 72 h. As for the experimental part:
as §3, §2

Another assay concerns A549. Kind of assay: CCK8 assay IC50. The format is cell-based. Particulars: A549, lung cancer, 72 h. As for the experimental part:
as §3, §2

A further assay has as its system HeLa. Kind of assay: CCK8 assay IC50. The format is cell-based. The settings on record: cervical cancer, 72 h. As for the experimental part:
as §3, §2

Another assay deals with HCT-15. Kind of assay: CCK8 assay IC50. The assay is classed as cell-based. Particulars: HCT-15, colon cancer, 72 h. The method, then:
as §3, §2

The test system of another assay is SH-SY5Y. Put plainly: CCK8 assay IC50. The format is cell-based. The settings on record: neuroblastoma, 72 h. As for the experimental part: as §3, §2
In assay [3] the test system is Primary breast tumor cells. Put plainly: CCK8 assay IC50. The settings on record: breast cancer, 72 h. The assay is classed as cell-based, human.
Excerpt: as §1, §3, §4

The subject of another assay is MDA-MB-231. Put plainly: CCK8 assay IC50. Particulars: MDA-MB-231, breast cancer, 72 h, CCK8. The assay is classed as cell-based, human. As for the experimental part:
as §3, §2

The test system of another assay is HUVEC. Kind of assay: CCK8 assay IC50. The format is cell-based, human. The settings on record: normal cells, 72 h. As for the experimental part: as §3, §2

`Cc1[nH]c2ccccc2c1CCNCc1ccc(/C=C/C(=O)NO)cc1` [panobinostat]: the “frequency and amplitude of [Ca^2+]i oscillations” value (“frequency and amplitude” for short) with MDA-MB-231 cells [1] was “did not alter the frequency and amplitude”.
For `Cc1cc(Nc2nc(N[C@@H](C)c3ccc(F)cc3)c(C#N)cc2F)[nH]n1` [AZ960], in the assay with MDA-MB-231 cells [2], the “effect on cell survival” value was “discernible effects on cell survival”.
For `CCCCc1nc2cc(/C=C/C(=O)NO)ccc2n1CCN(CC)CC` [pracinostat], in the assay with MDA-MB-231 cells [2], the “effect on cell survival” value was “discernible effects on cell survival”.
Turning to `O=C(CCCCCCC(=O)Nc1ccccc1)NO` [vorinostat], the “frequency and amplitude” value with MDA-MB-231 cells [1] is “did not alter the frequency and amplitude”. Besides, the “effect on cell survival” value in the assay with MDA-MB-231 cells [2] is given as “discernible effects on cell survival”.
Take `C#Cc1cccc(Nc2ncnc3cc(OC)c(OCCCCCCC(=O)NO)cc23)c1` [CUDC-101]: the “effect on cell survival” value in the assay on MDA-MB-231 cells [2] is “discernible effects on cell survival”.
In the case of `CC(/C=C/C(=O)NO)=C\[C@@H](C)C(=O)c1ccc(N(C)C)cc1` [TSA, trichostatin A], the pIC50 in the assay on MEF is > 6.00 and 6.05; with PC-3 it was 5.88; in the assay on MCF-7, 6.04; in the assay with T-47D it was 6.04; in the assay with SMMC-7721, 5.49; in the assay on PANC-1, 5.85. The negative-log IC50 (pIC50) in the assay on Caco-2 was 5.52; in the assay with A549, 5.88; in the assay with HeLa, 6.24; in the assay on HCT-15, 5.64; in the assay on SH-SY5Y, 6.14; in [3], 5.64. The negative-log IC50 (pIC50) was 6.00 in the assay with MDA-MB-231; > 6.00 and 6.08 in the assay on HUVEC. For the same molecule, in the assay on MDA-MB-231 cells [1], the “frequency and amplitude” value is “did not alter the frequency and amplitude”. The “effect on cell survival” value in the assay on MDA-MB-231 cells [2] is reported as “discernible effects on cell survival”.
In the case of `O=C(/C=C/c1cccc(S(=O)(=O)Nc2ccccc2)c1)NO` [belinostat], in the assay with MDA-MB-231 cells [2], the “effect on cell survival” value is given as “discernible effects on cell survival”.
